Results from patent US10767186B2, “Organic compounds” (Novartis AG, priority 2007, dated 2020).

How the values were obtained:
[1] = molecular target: FRα (FR alpha) and FRβ (FR beta); details: cited from earlier work; for Kd: FRα and FRβ
[2] = molecular target: T1, reduced folate carrier (RFC) (Homo sapiens, UniProt P41440); details: cited from earlier work
T1 sequence (P41440 1-591): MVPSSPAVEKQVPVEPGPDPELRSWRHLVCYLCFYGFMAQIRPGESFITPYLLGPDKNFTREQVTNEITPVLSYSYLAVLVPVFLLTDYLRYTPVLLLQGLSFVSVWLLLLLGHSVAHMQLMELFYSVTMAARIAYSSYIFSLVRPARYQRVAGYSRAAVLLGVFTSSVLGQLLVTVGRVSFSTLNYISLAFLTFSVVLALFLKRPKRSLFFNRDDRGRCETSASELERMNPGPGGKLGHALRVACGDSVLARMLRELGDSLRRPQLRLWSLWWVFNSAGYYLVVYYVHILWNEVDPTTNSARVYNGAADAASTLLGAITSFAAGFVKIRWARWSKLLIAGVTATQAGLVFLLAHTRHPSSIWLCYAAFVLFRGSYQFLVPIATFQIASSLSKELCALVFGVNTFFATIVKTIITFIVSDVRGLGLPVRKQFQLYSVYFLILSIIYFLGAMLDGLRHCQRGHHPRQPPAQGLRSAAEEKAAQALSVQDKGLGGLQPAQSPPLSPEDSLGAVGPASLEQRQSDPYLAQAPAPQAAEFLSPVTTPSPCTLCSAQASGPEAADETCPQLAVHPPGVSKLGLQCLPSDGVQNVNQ

[3] = tested on: RFC-deficient C15 cells; experiment: Antibody production of test vector clones at low folic acid (ELISA); format: cell-based, Chinese hamster
Description: The cells are lacking RFC transporter activity, as disclosed elsewhere (Assaraf, Y. G. and Schimke, R. T. (1987) Proc. Natl. Acad. Sci. USA 84, 7154-7158; Rothem, L., et al., Mol. Pharmacol. 68: 616-624).
RFC-deficient C15 cells are transfected with the test vector by electroporation. […] Cells are diluted to a final density of 5 cells/ml and seeded at 100 μl/well in 96-well plates (i.e. 0.5 cells/well). […] The co-selection utilizing the folate system of the present invention together with an additional selection system (i.e. neo/G418) is applied to provide optimal performance of the selection process. […] This is corroborated by further analysis of antibody expression in the various clones.
The analysis of antibody production is performed in principle as outlined in Example 1.4 above. The concentration of the secreted antibody is monitored using an ELISA assay as follows: Maxisorp microplates are coated with an anti-human IgG. Following blocking with a buffer containing bovine serum albumin (BSA) and several washes, multiple dilutions of the secreted antibody samples are added. Then, a peroxidase-conjugated second antibody consisting of goat anti-human IgG-peroxidase is added. Finally, a colorimetric peroxidase substrate is added following which the resultant dye concentration is determined in each well spectrophotometrically and then compared to standard concentrations of known IgG concentrations.

[4] = tested on: CHO-K1 cell line; experiment: Folic acid starvation experiment, cell survival; format: cell-based, Chinese hamster
Description: Cells are cultivated in such medium and cell viability is analyzed to quantify the percentage of surviving cells.

C#CCN(c1ccc(C(=O)N[C@@H](CCC(=O)N[C@H](CCC(=O)O)C(=O)O)C(=O)O)cc1)[C@H]1CCc2cc3nc(CO)[nH]c(=O)c3cc21 [BGC945]
Kd [1]: 1 nM

Nc1nc2c(c(=O)[nH]1)N(C=O)C(CNc1ccc(C(=O)N[C@@H](CCC(=O)O)C(=O)O)cc1)CN2 (some centres unmarked) [leucovorin, 5-formyl-THF]
Kt (transport affinity) [2]: 1 µM

Nc1nc2c(c(=O)[nH]1)CC(CCc1ccc(C(=O)N[C@@H](CCC(=O)O)C(=O)O)cc1)CN2 (some centres unmarked) [DDATHF, 5,10-dideazatetrahydrofolic acid]
Ki ([1]; using [3H]folic acid as a substrate): 0.4 to 1.3 nM

Nc1nc2ncc(CNc3ccc(C(=O)N[C@@H](CCC(=O)O)C(=O)O)cc3)nc2c(=O)[nH]1 [folic acid]
CmAb: concentration of the secreted antibody in the medium ([3]; folic acid 60 pM in the medium): 216 ± 30 µg/L
CmAb: concentration of the secreted antibody in the medium ([3]; folic acid 600 pM in the medium): 138 ± 15 µg/L
CmAb: concentration of the secreted antibody in the medium ([3]; folic acid 1200 pM in the medium): 19 ± 8 µg/L
Kt (transport affinity) [2]: 200 to 400 µM
Precentage of Survival ([4]; FA concentration 0.1 nM): 2.08
Precentage of Survival ([4]; FA concentration 1 nM): 2.45
Precentage of Survival ([4]; FA concentration 3 nM): 2
Precentage of Survival ([4]; FA concentration 10 nM): 2.7
Precentage of Survival ([4]; FA concentration 30 nM): 6.8
Precentage of Survival ([4]; FA concentration 100 nM): 55.5
Precentage of Survival ([4]; FA concentration 300 nM): 88.6
Precentage of Survival ([4]; FA concentration 1000 nM): 100.8
Precentage of Survival ([4]; FA concentration 2300 nM): 100

CN(Cc1cnc2nc(N)nc(N)c2n1)c1ccc(C(=O)N[C@@H](CCC(=O)O)C(=O)O)cc1 [MTX, 4-amino-10-methylfolic acid]
Kd [1]: > 100 nM
